Data reported in BindingDB's records for patent US20240174696 (Genentech, 2024).
pKi: −log10 of the molar value.

Target: T1, Serine/threonine-protein kinase LATS2 (Homo sapiens, UniProt Q9NRM7)
T1 sequence (Q9NRM7 whole entry): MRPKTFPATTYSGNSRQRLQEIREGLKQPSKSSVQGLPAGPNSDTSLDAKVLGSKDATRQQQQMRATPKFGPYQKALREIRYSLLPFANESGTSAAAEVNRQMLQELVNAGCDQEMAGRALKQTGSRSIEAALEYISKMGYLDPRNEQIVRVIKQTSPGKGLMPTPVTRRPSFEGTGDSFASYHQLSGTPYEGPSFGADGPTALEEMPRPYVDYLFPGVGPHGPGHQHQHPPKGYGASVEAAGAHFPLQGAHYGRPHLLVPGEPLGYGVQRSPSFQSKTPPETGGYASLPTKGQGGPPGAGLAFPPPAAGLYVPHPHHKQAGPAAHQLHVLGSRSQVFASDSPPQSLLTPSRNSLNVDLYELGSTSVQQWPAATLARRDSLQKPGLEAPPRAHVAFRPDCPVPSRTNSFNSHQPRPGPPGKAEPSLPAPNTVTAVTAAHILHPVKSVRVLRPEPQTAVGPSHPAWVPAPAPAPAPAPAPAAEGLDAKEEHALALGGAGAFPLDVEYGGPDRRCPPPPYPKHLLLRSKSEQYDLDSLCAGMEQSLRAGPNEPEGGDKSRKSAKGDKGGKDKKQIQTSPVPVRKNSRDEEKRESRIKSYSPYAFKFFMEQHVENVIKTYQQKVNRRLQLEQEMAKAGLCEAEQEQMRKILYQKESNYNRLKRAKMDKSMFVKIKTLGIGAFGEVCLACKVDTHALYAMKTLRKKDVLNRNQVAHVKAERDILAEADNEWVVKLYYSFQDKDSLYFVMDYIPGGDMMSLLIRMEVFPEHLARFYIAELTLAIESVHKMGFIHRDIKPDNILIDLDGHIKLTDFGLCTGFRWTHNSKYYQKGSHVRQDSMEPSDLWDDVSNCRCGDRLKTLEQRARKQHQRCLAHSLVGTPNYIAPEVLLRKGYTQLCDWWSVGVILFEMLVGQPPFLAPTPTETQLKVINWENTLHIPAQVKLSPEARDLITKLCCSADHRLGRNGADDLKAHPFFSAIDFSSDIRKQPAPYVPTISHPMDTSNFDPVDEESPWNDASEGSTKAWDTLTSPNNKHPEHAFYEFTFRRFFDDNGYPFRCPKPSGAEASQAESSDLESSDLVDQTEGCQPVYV
Assay: Standard LATS2 HTRF Assay
Experimental: Human LATS2 catalytic domain which contains the amino acids G553-V1088 (accession NP_055387) was purified in-house. The LATS2 catalytic domain was co-purified with Mob1b (accession NP_775739). The LATS2 biochemical HTRF assay was performed using the HTRF KinEASE-STK S1 Kit (Cisbio, Cat #62ST1PEC), following the protocol from the manufacturer. Compounds were dispensed by the Echo Liquid Handler (Labcyte) into a white 384-well plate (PerkinElmer, Cat #6008289). 3 uL of 2×LATS2 enzyme solution was added to the compounds, following by a 10 minute incubation at room temperature. Then, 2×ATP and STK S1 peptide solution was added to initiate the one hour enzyme reaction at room temperature. The final condition of the reaction was 0.2 nM LATS2, 50 μM ATP, 0.5 μM STK S1 peptide in 50 mM HEPES pH7.2, 10 mM MgCl2, 0.1% BGG, 0.005% Brij-35, 1 mM DTT. The reaction was quenched by adding 6 uL of the detection mixture which contained Streptavidin XL665 and STK Antibody-Cryptate (Cisbio), incubate for 1 hour at room temperature. The HTRF (665 nm/620 nm) signal was read on the Envision plater reader (PerkinElmer). The IC50 values were determined by fitting the % inhibition with a nonlinear four-parameter logistical equation. The Ki values were calculated using the Cheng-Prusoff equation for a competitive inhibitor, IC50═Ki (1+S/Km)+M [E] with ATP Km for LATS2=105 μM.

Compound: COc1cncc2nc(-c3ccncc3)nc(N3CCC4(CCN(C)C4)CC3)c12 [US20240174696, Compound 252]
- pKi: 10.66
